# Key:
# Acetylcholinesterase [1] = target: T1, Acetylcholinesterase (Homo sapiens, UniProt P22303)
# Description: Inhibitory activity against Acetylcholinesterase enzyme using human AChE assay
# Acetylcholinesterase [2] = target: T1, Acetylcholinesterase; remark: listed apart in the source
# Description: Binding affinity towards Acetylcholinesterase
# T1 sequence (P22303 whole entry): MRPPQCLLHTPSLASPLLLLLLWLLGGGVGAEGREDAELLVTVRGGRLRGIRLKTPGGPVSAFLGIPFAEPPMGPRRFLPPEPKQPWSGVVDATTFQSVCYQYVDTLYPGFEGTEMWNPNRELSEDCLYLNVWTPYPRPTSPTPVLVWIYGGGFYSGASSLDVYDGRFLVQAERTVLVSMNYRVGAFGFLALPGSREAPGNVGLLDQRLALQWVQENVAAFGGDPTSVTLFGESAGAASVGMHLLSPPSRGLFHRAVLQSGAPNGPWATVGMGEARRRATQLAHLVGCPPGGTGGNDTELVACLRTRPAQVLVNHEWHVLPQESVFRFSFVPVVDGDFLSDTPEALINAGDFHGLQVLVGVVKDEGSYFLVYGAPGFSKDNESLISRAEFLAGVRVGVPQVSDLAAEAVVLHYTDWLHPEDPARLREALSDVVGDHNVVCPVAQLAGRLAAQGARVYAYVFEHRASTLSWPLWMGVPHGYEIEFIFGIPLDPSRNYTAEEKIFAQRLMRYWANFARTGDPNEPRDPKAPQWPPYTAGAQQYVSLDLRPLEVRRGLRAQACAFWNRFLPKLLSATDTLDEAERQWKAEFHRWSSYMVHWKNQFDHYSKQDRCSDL
SMILES,IC50 (Acetylcholinesterase [1]) [nM],Ki (Acetylcholinesterase [2]) [nM]
COc1cc2c(cc1OC)C(=O)C(C1CC[N+](C)(Cc3ccccc3)CC1)=C2 (stereo unspecified),250,251
COc1cc2cc(C(=O)C3CC[N+](C)(Cc4ccccc4)CCC3OC)sc2cc1OC (stereo unspecified),120,120
COc1cc2c(cc1OC)SC(C(=O)CC1C=CC[N+](C)(Cc3ccccc3)CC1)C2 (stereo unspecified),750,759
COc1cc2cc(C(=O)C3CCC[N+](C)(Cc4ccccc4)CC3)sc2cc1OC (stereo unspecified),8,7.94
CCOCC[n+]1ccc(CCC(=O)C2Cc3cc(OC)c(OC)cc3S2)cc1 (stereo unspecified),7,7.08
CCC[n+]1ccc(CCC(=O)C2Cc3cc(OC)c(OC)cc3S2)cc1 (stereo unspecified),2570,2570
COc1cc2c(cc1OC)SC(CC1CC[N+](C)(Cc3ccccc3)CC1)C2 (stereo unspecified),30000,30200
COc1cc2c(cc1OC)SC(C(=O)CC(O)C1CC[N+](C)(Cc3ccccc3)CC1)C2 (stereo unspecified),190,191
COc1cc2cc(C3CC[N+](C)(Cc4ccccc4)CC3O)sc2cc1OC (stereo unspecified),19600,19500
COc1cc2c(cc1OC)SC(C(=O)CCc1cc[n+](Cc3ccc(F)cc3)cc1)C2 (stereo unspecified),2.6,2.57
COc1cc2cc(C(=O)C3=CC[N+](C)(Cc4ccccc4)CC3)sc2cc1OC (stereo unspecified),520,525
COc1cc2cc(C(=O)C3CCC[N+](C)(CC#N)CC3)sc2cc1OC (stereo unspecified),1000,1000
COC(=O)C[N+]1(C)CCC(CCC(=O)C2Cc3cc(OC)c(OC)cc3S2)CC1 (stereo unspecified),54,53.7
CC[n+]1ccc(CCC(=O)C2Cc3cc(OC)c(OC)cc3S2)cc1 (stereo unspecified),280,282
COc1cc2onc(CCC3CCN(Cc4ccccc4)CC3)c2cc1C,5.8,5.75
C=CC[n+]1ccc(CCC(=O)C2Cc3cc(OC)c(OC)cc3S2)cc1 (stereo unspecified),6.27,219
COc1cc2c(cc1OC)SC(C(=O)CCc1cc[n+](CC3CC3)cc1)C2 (stereo unspecified),110,110
COCC[n+]1ccc(CCC(=O)C2Cc3cc(OC)c(OC)cc3S2)cc1 (stereo unspecified),30,30.2
COc1cc2cc(C3=CC[N+](C)(Cc4ccccc4)CC3)sc2cc1OC (stereo unspecified),2670,2690
C[N+]1(Cc2ccccc2)CCC(CCC(=O)c2ccc3c(c2)OCO3)CC1 (stereo unspecified),41.5,41.7
C[N+]1(Cc2ccccc2)CCC(CCC(=O)c2ccc3c(c2)CCCCO3)CC1 (stereo unspecified),,138
O=C1Cc2cc3onc(CCC4CCN(Cc5ccccc5)CC4)c3cc2N1,,0.955
O=C1CCc2cc3c(CCC4CCN(Cc5ccccc5)CC4)noc3cc2N1,,0.575

SMILES,IC50 (Acetylcholinesterase [1]) [nM],Ki (Acetylcholinesterase [2]) [nM]
Brc1ccc2c(CCC3CCN(Cc4ccccc4)CC3)noc2c1,,50.1
COc1cc2cc(C(=O)C3CC[N+](C)(Cc4ccccc4)CCC3O)sc2cc1OC (stereo unspecified),43,42.7
COc1cc2cc(C(=O)CC3CCCC[N+](C)(Cc4ccccc4)CC3)sc2cc1OC (stereo unspecified),110,110
COc1cc2c(cc1OC)SC(C(=O)CCc1cc[n+](Cc3ccsc3)cc1)C2 (stereo unspecified),6,6.03
O=C(CCc1cc[n+](Cc2ccccc2)cc1)c1ccc2c(c1)OCO2,240,240
COCC[N+]1(C)CCCC(C(=O)c2cc3cc(OC)c(OC)cc3s2)CC1 (stereo unspecified),53,52.5
COc1cc2cc(C(=O)C3CCC[N+](C)(CC(=O)OC(C)(C)C)CC3)sc2cc1OC (stereo unspecified),79,79.4
COc1cc2c(cc1OC)SC(C(=O)CCc1cc[n+](CC3CCC3)cc1)C2 (stereo unspecified),40,39.8
COc1cc2c(cc1OC)SC(C(=O)CCc1cc[n+](C)cc1)C2 (stereo unspecified),900,891
CN1C(=O)Cc2cc3onc(CCC4CCN(Cc5ccccc5)CC4)c3cc21,0.48,0.479
COc1cc2cc(C(=O)CCC3CC[N+](C)(Cc4ccccc4)CC3)n(C)c2cc1OC (stereo unspecified),,120
Cc1ccc2onc(CCC3CCN(Cc4ccccc4)CC3)c2c1,,7.76
COc1cc2c(cc1OC)SC(C(=O)CCc1cc[n+](Cc3coc([N+](=O)[O-])c3)cc1)C2 (stereo unspecified),4.5,4.47
COc1cc2cc(C(=O)C3CCC[N+](C)(Cc4ccc([N+](=O)[O-])o4)CC3)sc2cc1OC (stereo unspecified),32,32.4
C[N+]1(Cc2ccccc2)CCC(CCC(=O)c2ccc3c(c2)OCCO3)CC1 (stereo unspecified),,100
Cc1cc(C(=O)CCC2CC[N+](C)(Cc3ccccc3)CC2)nn1-c1ccccc1 (stereo unspecified),,21.9
COc1ccc2cc(C(=O)CCC3CC[N+](C)(Cc4ccccc4)CC3)ccc2c1 (stereo unspecified),,50.1
CC(=O)Nc1ccc2c(CCC3CCN(Cc4ccccc4)CC3)noc2c1,,2.82
N#Cc1ccc2c(CCC3CCN(Cc4ccccc4)CC3)noc2c1,,100
O=S(=O)(Nc1ccc2c(CCC3CCN(Cc4ccccc4)CC3)noc2c1)c1ccccc1,,14.1
O=C1Cc2c(ccc3c(CCC4CCN(Cc5ccccc5)CC4)noc23)N1,,3.63
O=C1Cc2cc3c(CCC4CCN(Cc5ccccc5)CC4)noc3cc2N1 [ICOPEZIL],,0.331

# Reference: ChEMBL document CHEMBL1138798, “A docking score function for estimating ligand-protein interactions: application to acetylcholinesterase inhibition” (J Med Chem, 2004)
